In ChEMBL document CHEMBL5705888, “Substrate specificity and inhibitors of LRRK2, a protein kinase mutated in Parkinson's disease” (Biochem J, 2009) one finds residual activity data, which are given here for five compounds.

Assay [1] addresses T1, Serine/threonine-protein kinase 3 (Homo sapiens) (UniProt Q13188).
T1 sequence (whole entry): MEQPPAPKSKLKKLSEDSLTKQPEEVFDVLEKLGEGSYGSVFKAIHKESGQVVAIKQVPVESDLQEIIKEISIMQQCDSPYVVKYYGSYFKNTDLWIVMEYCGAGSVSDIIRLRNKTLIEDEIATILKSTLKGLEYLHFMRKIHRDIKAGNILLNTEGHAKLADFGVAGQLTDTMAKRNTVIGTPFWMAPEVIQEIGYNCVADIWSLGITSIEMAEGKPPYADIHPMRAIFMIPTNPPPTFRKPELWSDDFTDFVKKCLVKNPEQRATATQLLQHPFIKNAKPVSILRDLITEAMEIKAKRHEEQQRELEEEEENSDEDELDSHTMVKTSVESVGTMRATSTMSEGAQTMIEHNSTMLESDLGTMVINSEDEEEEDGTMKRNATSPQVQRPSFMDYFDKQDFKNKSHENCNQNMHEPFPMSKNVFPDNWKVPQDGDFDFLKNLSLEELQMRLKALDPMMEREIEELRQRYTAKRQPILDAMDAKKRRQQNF
The assay can be described thus: Inhibition of MST2 (unknown origin) at 10 uM incubated for 30 mins in presence of [gamma-33P]ATP by multidrop micro reagent based assay relative to control; values are per cent of control.

Assay [2] concerns the target Casein kinase 2 (Homo sapiens) (UniProt P67870+P68400+P19784+Q8NEV1). The assay can be described thus: Inhibition of CK2 (unknown origin) at 1 uM incubated for 30 mins in presence of [gamma-33P]ATP by multidrop micro reagent based assay relative to control; values are per cent of control.
For assay [3], the target named is T2, MAP kinase-activated protein kinase 5 (Homo sapiens) (UniProt Q8IW41).
T2 sequence (whole entry): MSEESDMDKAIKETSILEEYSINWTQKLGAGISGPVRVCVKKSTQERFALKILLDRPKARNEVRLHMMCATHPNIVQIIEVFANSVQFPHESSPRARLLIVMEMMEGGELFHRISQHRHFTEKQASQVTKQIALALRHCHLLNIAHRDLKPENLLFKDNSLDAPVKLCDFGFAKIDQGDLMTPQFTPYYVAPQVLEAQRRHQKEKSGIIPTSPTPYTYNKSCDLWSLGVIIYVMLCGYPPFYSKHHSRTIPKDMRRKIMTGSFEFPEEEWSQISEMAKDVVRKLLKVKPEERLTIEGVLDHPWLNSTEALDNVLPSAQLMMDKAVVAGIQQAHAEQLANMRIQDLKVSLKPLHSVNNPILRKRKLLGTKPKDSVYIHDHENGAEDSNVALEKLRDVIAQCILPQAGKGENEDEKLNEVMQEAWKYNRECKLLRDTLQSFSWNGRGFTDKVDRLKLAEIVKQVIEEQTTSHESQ
The assay can be described thus: Inhibition of PRAK (unknown origin) at 1 uM incubated for 30 mins in presence of [gamma-33P]ATP by multidrop micro reagent based assay relative to control; values are per cent of control.

In assay [4] the target is T3, Serine/threonine-protein kinase BRSK2 (Homo sapiens) (UniProt Q8IWQ3).
T3 sequence (whole entry): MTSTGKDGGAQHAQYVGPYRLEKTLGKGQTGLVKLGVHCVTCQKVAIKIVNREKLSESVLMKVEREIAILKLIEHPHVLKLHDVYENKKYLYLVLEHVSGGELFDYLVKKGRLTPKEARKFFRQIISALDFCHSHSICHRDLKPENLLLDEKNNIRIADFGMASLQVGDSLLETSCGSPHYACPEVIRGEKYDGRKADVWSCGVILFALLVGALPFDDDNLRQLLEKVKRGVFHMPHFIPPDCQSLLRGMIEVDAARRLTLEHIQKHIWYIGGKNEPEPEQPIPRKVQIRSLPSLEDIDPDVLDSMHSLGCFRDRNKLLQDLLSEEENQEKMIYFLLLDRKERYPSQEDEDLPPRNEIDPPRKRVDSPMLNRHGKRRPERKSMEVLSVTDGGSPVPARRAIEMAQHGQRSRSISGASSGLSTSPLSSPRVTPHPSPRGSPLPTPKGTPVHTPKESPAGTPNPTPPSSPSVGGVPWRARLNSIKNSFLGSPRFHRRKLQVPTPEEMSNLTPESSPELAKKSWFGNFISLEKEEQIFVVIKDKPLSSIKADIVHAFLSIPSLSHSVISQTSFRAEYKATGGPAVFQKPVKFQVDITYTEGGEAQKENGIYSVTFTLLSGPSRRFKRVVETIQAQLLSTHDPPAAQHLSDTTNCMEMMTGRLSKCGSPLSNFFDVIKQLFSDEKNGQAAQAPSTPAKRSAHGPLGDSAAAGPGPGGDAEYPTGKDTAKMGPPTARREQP
The assay can be described thus: Inhibition of BRSK2 (unknown origin) at 1 uM incubated for 30 mins in presence of [gamma-33P]ATP by multidrop micro reagent based assay relative to control; values are per cent of control.

In assay [5] the target is T4, Serine/threonine-protein kinase Nek2 (Homo sapiens) (UniProt P51955).
T4 sequence (whole entry): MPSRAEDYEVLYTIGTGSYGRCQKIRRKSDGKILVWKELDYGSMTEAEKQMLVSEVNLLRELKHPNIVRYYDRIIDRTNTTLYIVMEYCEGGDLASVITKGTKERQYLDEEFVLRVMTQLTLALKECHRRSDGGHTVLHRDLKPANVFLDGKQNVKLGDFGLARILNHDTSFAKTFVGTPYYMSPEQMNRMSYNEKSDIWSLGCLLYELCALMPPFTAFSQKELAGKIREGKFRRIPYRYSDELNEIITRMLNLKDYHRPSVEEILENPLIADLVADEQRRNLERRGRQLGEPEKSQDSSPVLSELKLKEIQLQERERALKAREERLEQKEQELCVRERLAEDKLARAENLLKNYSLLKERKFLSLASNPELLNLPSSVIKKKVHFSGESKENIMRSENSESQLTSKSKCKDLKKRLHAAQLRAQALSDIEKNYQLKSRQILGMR
The assay can be described thus: Inhibition of NEK2a (unknown origin) at 1 uM incubated for 30 mins in presence of [gamma-33P]ATP by multidrop micro reagent based assay relative to control; values are per cent of control.

Turning to `C[C@@H](N)[C@H]1CC[C@H](C(=O)Nc2ccncc2)CC1`, in assay [1], the residual activity was found to be 61%.

Regarding `CC1=C(C(=O)Nc2cc3cn[nH]c3cc2F)C(c2ccc(C(F)(F)F)cc2)CC(=O)N1` (stereo not given), the residual activity was 82% in assay [2], 92% in assay [3], 91% in assay [4] and 106% in assay [5].

As to `O=S(=O)(c1cccc2cnccc12)N1CCCNCC1` [FASUDIL], the residual activity in assay [1] was determined as 51%.

Consider `Cc1cncc2cccc(S(=O)(=O)N3CCCNC[C@@H]3C)c12`, for which the residual activity in assay [2] stood at 84%; in assay [4] it was 17%; in assay [5], 99%.

Consider `CCN(CC)CCNC(=O)c1c(C)[nH]c(/C=C2\C(=O)Nc3ccc(F)cc32)c1C`, for which, in assay [3], the residual activity came to 75%.
